The target in experiment [1] is GABA-A receptor; anion channel. As to the kind of experiment: Binding affinity for GABA-A benzodiazepine receptor of rat hippocampal neurons. The format is tissue-based, Hippocampus.
Experiment [2] concerns the target T1, GABA-A receptor; anion channel (Rattus norvegicus) (UniProt O09028+P15431+P18506+P18508+P19969+P20236+P23574+P23576+P28471+P28473+P30191+P62813+P63079+P63138+Q91ZM7+Q9ES14). As to the kind of experiment: Non-specific binding to GABA-A benzodiazepine receptor of rat hippocampal neurons after co-incubation with 1 uM midazolam (range is 7-10%). The format is tissue-based. To be noted: Hippocampus.

Experiment [3] addresses T1, GABA-A receptor; anion channel (Rattus norvegicus). The experiment is described as follows: Saturation binding for benzodiazepine receptor of rat hippocampal neurons. The format is tissue-based. To be noted: Hippocampus.
Experiment [4] shares this target. As to the kind of experiment: Percent binding to GABA-A benzodiazepine receptor of rat hippocampal neurons at 2 nM. The format is tissue-based. Particulars: Hippocampus.

“And” between values parts separate entries of the source, which are not always exact repeats. Identical values can stand only once.

The values below come from ChEMBL document CHEMBL1148354, “Dye-labeled benzodiazepines: development of small ligands for receptor binding studies using fluorescence correlation spectroscopy” (J Med Chem, 2004).

As to `CC1N=c2c(cc3c(c2S(=O)(=O)O)Oc2c(cc4c(c2S(=O)(=O)O)NC(C)C4(C)C)C=3c2ccc(C(=O)NCCN3C(=O)CN=C(c4ccccc4F)c4cc(Cl)ccc43)cc2)C1(C)C` (centres undefined), the Kd in experiment [1] is 97.2 nM and 9.9 nM. In addition, the figures for the Binding in experiment [2] and in experiment [4] were 10% and 90%, respectively. For the same molecule, the Concentration in experiment [3] was 120 nM.

What is called Kd is the constant that tells how readily two partners part at equilibrium.
